For 14 molecules, Ki results are on record in ChEMBL document CHEMBL1138646, “Carbonic anhydrase inhibitors: inhibition of the membrane-bound human isozyme IV with anions” (Bioorg Med Chem Lett, 2004).

Test [1] deals with T1, Carbonic anhydrase 4 (Homo sapiens, UniProt P22748).
Description: Inhibition constant of anion against human carbonic anhydrase isozyme hCA IV
The target in test [2] is Carbonic anhydrase 9 (Homo sapiens, UniProt Q16790).
Description: Inhibition constant of anion against human carbonic anhydrase isozyme hCA IX
The target in test [3] is T2, Carbonic anhydrase V (Homo sapiens, UniProt Q9Y2D0+P35218). The format is protein assay. To be noted: for pKi: read-out: Ki.
Description: Inhibition constant of anion against human carbonic anhydrase isozyme hCA V
In test [4] the target is T2, Carbonic anhydrase V. The experiment in a line: Inhibition constant against human carbonic anhydrase isozyme hCA V. The format is protein assay.
The target in test [5] is T1, Carbonic anhydrase 4. The experiment in a line: Inhibition constant against human carbonic anhydrase isozyme hCA IV.

As usually defined, the pKi is −log10 of the Ki, conventionally taken in molar units. The term Ki denotes the equilibrium dissociation constant of an inhibitor or competing ligand from its target.

Molecules are shown by their SMILES. pKi: −log10 of the molar value. Several values for one entry are separate records, joined by “and”; a condition that tells them apart may be missing. Identical values can stand only once.

T1 sequence (P22748 whole entry): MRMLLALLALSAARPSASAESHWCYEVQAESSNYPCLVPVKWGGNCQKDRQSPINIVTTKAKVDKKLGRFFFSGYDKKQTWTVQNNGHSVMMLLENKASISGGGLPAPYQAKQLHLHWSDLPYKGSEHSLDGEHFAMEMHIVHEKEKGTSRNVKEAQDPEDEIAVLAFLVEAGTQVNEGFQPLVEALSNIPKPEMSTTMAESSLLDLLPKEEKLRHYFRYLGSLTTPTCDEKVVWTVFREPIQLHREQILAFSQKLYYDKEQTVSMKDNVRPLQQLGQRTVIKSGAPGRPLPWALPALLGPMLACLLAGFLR

For `O=C(O)O` [BICARBONATE], the pKi is 2.18 and 2.24 in test [1]; 1.89 in test [2]; 1.09 and 1.02 in test [3].
On to `Br` [BROMIDE], for which the pKi in test [1] is 4.05; in test [2], 1.80; in test [3], 1.30.
`N#CO` [CYANATE]: the pKi was 3.21 in test [1], 4.40 in test [2] and 4.70 in test [3].
For `F` [FLUORIDE ION], in that order: 4.15, 1.32 and 0.62.
As to `Cl` [HYDROCHLORIC ACID], the pKi is 4.05 in test [1] and 1.48 in test [2]. Further, the Ki in test [3] turned out to be 156 mM.
Turning to `S` [HYDROGEN SULFIDE], the pKi in test [1] is 2.41; in test [2], 5.15. In addition, the Ki in test [3] was 0.02 mM.
The matching figures for `I` [IODIDE]: 4.10, 2.15 and 25 mM.
With `O=[N+]([O-])O` [NITRIC ACID], the negative logarithm of the Ki (pKi) in test [1] is 1.23; in test [2] it was 1.34. The same molecule came in with a Ki in test [3] of 16 mM.
With `O=NO` [NITROUS ACID], the pKi in test [1] is 1.51; in test [3] it was 1.80.
`OB(O)c1ccccc1` [PHENYLBORONIC ACID]: the inhibition constant Ki in test [4] is 4.5 mM. Moreover, the pKi in test [5] is 6.06.
In turn, `NS(=O)(=O)O` [SULFAMATE] yielded an inhibition constant Ki in test [4] of 0.12 mM. This molecule showed a pKi in test [5] of 6.03.
Molecule `O=S(=O)(O)O` [SULFURIC ACID] gave a pKi in test [1] of 2.05. This molecule also returned a Ki in test [3] of 680 mM.
Regarding `O=S(O)O` [SULFUROUS ACID], the pKi is 1.88 in test [1] and 1.19 in test [3].
With `N#CS` [THIOCYANIC ACID], the pKi in test [1] was 1.41; in test [2], 3.89; in test [3] it was 3.13.
